Measured values published in patent publication US11202814B2, “Compositions for atopic skin” (INFINITEC ACTIVOS, S.L., priority 2018, dated 2021).

System: PGE2 release
Test: Inhibitory effect on PGE2 release in cell culture, inflammation induced by IL1a
Assay type: cell-based, human
Experimental: The inhibitory effect on IL1a inflammatory induction of the non-encapsulated composition of Pinus pinaster bark extract and curcumin, capsules loaded with Pinus pinaster bark extract and curcumin, unloaded capsules, non-encapsulated composition of Pinus pinaster bark extract and non-encapsulated composition of curcumin were analysed on human dermal fibroblasts.
Human dermal fibroblasts (LIFE TECHNOLOGIES), seeded in a 96-well plate up to 80% confluency, were treated with the following compositions dissolved in medium DMEM (Dulbecco's Modified Eagle Medium) to a total volume of 1 ml: • a) pine bark extract (1%) • b) curcumin (0.01%) • c) Phosphotech phospholipids (having the same composition has described in example 2) (4%) • d) curcumin (0.01%)+pine bark extract (1%) • e) capsules (curcumin (0.01%)+pine bark extract (1%)+Phosphotech phospholipids (having the same composition has described in example 2) (4%)) for 48 hours. […] After 24 hours inhibitory effect on PGE2 in culture cell was measured using prostaglandin E2 EIA kit (Prostaglandin E2 EIA kit—Monoclonal (Item: 514010) Cayman Chemical).
The results are provided in Table 4 below wherein the PGE2 release is expressed in pg/ml. The reduction vs IL1a-induced fibroblasts is calculated as the result of PGE2 obtained for each treatment/the result of PGE2 obtained for IL1a-induced fibroblasts (without any treatment). […]

Substance: curcumin [Composition b]
- Calculated reduction vs IL1a-induced fibroblasts (PGE2 of treatment / PGE2 of IL1a-induced fibroblasts (2170 pg/ml)): 0.232
- PGE2 (human dermal fibroblasts treated 48 hours, IL1a 5 pM, untreated IL1a-induced fibroblasts 2170, control 471 pg/ml): 503 pg/mL
